Data reported in patent US9416126B2, “Compounds inhibiting leucine-rich repeat kinase enzyme activity” (Merck Sharp & Dohme Corp., priority 2013, dated 2016).

Target: LRRK2(G2019S mutation, GST-LRRK2(amino acids 970-2527)) (Homo sapiens (Human), UniProt Q5S007, G2019S)
Assay: LRRK2 Km ATP LanthaScreen Assay
Format: biochemical
Details: Km ATP (184 μM ATP solution), G2019S LRRK2, mean IC50
Experimental: Unless otherwise noted, all LRRK2 IC50 data presented in tables refers to the LRRK2 Km ATP LanthaScreen™ Assay that is described in the Biological Assay section.
The data presented for the 5 mM and Km ATP LanthaScreen™ Assay represents mean IC50 values based on several test results and may have reasonable. deviations depending on the specific conditions and reagents used. Reagents for the LRRK2 5 mM and Km ATP LanthaScreen™ Assay were purchased from Life Technologies Corporation.
LRRK2 Km ATP LanthaScreen™ Assay
a) 400 nl of a 1:2.15 serial dilution of test compound(98 μM top assay concentration) is spotted via Labcyte Echo to certain wells in a 384 well black, untreated plate. Control wells contain 400 nl of either DMSO or 400 nl of a known inhibitor in DMSO.
b) 10 μl of a 2.5 nM LRRK2(G2019S mutation, GST-LRRK2(amino acids 970-2527)) enzyme solution in 1× assay buffer(50 mM Tris pH 8.5, 10 mM MgCl2, 0.01% Brij-35, 1 mM EGTA, 2 mM DTT, 0.05 mM NaVO4) is added to all wells.
c) A 30 minute room temperature incubation is followed by addition of 10 μl of 800 nM fluorescein labeled LRRKtide peptide substrate and 184 μM ATP solution in 1× assay buffer to all wells.
d) After a 60 minute room temperature incubation, 20 μl of TR-FRET Dilution Buffer(Invitrogen PV3756B) containing 4 nM Tb-labeled anti-phospho LRRKtide antibody and 20 mM EDTA is added to all wells.
e) Plates are incubated at room temperature for 1 hour and read on an Envision™ multi-mode plate reader with LanthaScreen™ settings. Results are analysed using Assay Data Analyzer.

Sequence of LRRK2(G2019S mutation, GST-LRRK2(amino acids 970-2527)) (Q5S007 970-2527 G2019S): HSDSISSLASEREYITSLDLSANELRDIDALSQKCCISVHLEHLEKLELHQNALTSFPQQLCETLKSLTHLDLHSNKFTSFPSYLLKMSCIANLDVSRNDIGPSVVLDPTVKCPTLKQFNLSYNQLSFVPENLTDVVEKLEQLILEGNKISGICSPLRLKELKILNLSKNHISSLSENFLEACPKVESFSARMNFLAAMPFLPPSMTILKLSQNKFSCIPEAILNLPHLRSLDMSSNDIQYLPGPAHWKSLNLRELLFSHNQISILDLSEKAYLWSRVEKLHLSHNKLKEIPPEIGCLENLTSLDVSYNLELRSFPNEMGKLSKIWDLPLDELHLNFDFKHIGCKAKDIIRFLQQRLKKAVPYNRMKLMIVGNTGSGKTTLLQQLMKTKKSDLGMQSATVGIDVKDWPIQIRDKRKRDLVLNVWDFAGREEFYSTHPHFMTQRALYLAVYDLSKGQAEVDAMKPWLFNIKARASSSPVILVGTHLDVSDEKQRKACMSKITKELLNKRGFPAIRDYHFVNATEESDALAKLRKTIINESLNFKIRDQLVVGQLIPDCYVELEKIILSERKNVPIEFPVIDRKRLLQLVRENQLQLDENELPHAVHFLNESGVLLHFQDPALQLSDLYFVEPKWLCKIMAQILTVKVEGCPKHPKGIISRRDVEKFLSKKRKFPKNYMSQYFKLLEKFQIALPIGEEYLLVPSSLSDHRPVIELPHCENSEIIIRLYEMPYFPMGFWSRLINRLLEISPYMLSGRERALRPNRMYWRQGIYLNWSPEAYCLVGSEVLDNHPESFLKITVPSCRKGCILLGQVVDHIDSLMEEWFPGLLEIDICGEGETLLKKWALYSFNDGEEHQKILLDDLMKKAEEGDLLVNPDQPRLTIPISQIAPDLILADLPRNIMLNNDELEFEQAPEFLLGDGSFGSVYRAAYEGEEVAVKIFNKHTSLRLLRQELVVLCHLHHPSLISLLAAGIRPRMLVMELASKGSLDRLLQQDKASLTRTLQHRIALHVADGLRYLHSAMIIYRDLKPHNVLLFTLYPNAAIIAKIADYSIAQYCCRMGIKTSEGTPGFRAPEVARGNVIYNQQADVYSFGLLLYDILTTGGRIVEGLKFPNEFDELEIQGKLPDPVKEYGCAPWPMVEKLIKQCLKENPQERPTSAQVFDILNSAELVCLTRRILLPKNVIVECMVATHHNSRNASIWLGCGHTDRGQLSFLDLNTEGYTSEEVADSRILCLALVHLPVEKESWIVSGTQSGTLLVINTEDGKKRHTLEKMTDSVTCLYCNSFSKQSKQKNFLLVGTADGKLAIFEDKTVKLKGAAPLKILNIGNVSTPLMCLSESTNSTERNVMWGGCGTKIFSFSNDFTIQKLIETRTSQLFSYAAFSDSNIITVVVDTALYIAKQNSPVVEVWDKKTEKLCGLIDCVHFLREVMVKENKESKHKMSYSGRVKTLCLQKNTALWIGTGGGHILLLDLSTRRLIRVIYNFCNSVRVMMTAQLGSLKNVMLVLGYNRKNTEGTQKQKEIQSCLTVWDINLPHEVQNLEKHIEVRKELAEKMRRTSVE

Row | SMILES | IC50 [nM]
1 | Cn1cc(-c2ccc3[nH]nc(-c4cc(N5CCN(C6CC6)CC5)ncn4)c3c2)cn1 [Example A2] | 2.62
2 | Cn1cc(-c2ccc3[nH]nc(-c4cc(N5CCOC6(CC6)C5)ncn4)c3c2)cn1 [Example A4] | 2.01
3 | CN1CCN(c2cc(-c3n[nH]c4ccc(-c5cnn(C)c5)cc34)ncn2)CC1=O [Example A5] | 4.91
4 | CN1CCN(c2cc(-c3n[nH]c4ccc(-c5cnn(C)c5)cc34)ncn2)CC1 [Example A6] | 2.85
5 | COCCNc1cc(-c2n[nH]c3ccc(-c4cnn(C)c4)cc23)ncn1 [Example A7] | 15
6 | COCCOC1CCN(c2cc(-c3n[nH]c4ccc(-c5cnn(C)c5)cc34)ncn2)CC1 [Example A9] | 1.87
7 | Cn1cc(-c2ccc3[nH]nc(-c4cc(N5CC6CCC(C5)O6)ncn4)c3c2)cn1 [Example A10] | 5.18
8 | C[C@@H]1CN(c2cc(-c3n[nH]c4ccc(-c5cnn(C)c5)cc34)ncn2)C[C@H](C)O1 [Example A11] | 1.4
9 | COC1CCN(c2cc(-c3n[nH]c4ccc(-c5cnn(C)c5)cc34)ncn2)CC1 [Example A12] | 2.04
10 | CC(=O)N1CCN(c2cc(-c3n[nH]c4ccc(-c5cnn(C)c5)cc34)ncn2)CC1 [Example A13] | 3.15
11 | Cn1cc(-c2ccc3[nH]nc(-c4cc(N5CCNC(=O)C5)ncn4)c3c2)cn1 [Example A14] | 2.84
12 | CC(C)N1CCN(c2cc(-c3n[nH]c4ccc(-c5cnn(C)c5)cc34)ncn2)CC1 [Example A15] | 0.73
13 | CO[C@H]1CN(c2cc(-c3n[nH]c4ccc(OC(C)C)cc34)ncn2)C[C@@H]1O [Example D1] | 9.9
14 | CC(C)Oc1ccc2[nH]nc(-c3cc(N4CCOC(C)(C)C4)ncn3)c2c1 [Example D3] | 6.37
15 | CC(C)Oc1ccc2[nH]nc(-c3cc(N4CC[S+]([O-])CC4)ncn3)c2c1 [Example D4] | 11.5
16 | CC(C)Oc1ccc2[nH]nc(-c3cc(N4CCC(F)(F)CC4)ncn3)c2c1 [Example D5] | 14.8
17 | CC(C)Oc1ccc2[nH]nc(-c3cc(N4CCN(S(C)(=O)=O)CC4)ncn3)c2c1 [Example D7] | 7.99
18 | CC(C)Oc1ccc2[nH]nc(-c3cc(N4CC5CCC(C4)O5)ncn3)c2c1 [Example D8] | 29.2
19 | CC(C)Oc1ccc2[nH]nc(-c3cc(N4CCN(C)C(=O)C4)ncn3)c2c1 [Example D9] | 11.2
20 | CC(C)Oc1ccc2[nH]nc(-c3cc(N4CCN(C5CC5)CC4)ncn3)c2c1 [Example D10] | 8.28
21 | [2H]C1([2H])OC([2H])([2H])C([2H])([2H])N(c2cc(-c3n[nH]c4ccc(OC(C)C)cc34)ncn2)C1([2H])[2H] [Example D11] | 7.12
22 | CC(C)Oc1ccc2[nH]nc(-c3cc(N4CCOC5(CC5)C4)ncn3)c2c1 [Example D12] | 4.04
23 | CC(C)Oc1ccc2[nH]nc(-c3cc(N4CCOCC4C)ncn3)c2c1 (stereo not drawn) [Example D13] | 19.8
24 | CCCN1CCN(c2cc(-c3n[nH]c4ccc(OC(C)C)cc34)ncn2)CC1 [Example D14] | 8.14

Row | SMILES | IC50 [nM]
25 | COCCNc1cc(-c2n[nH]c3ccc(OC(C)C)cc23)ncn1 [Example D16] | 26.3
26 | CC(C)Oc1ccc2[nH]nc(-c3cc(N4CCN(C(C)C)CC4)ncn3)c2c1 [Example D17] | 7.68
27 | CC(C)Oc1ccc2[nH]nc(-c3cc(N4CCNCC4)ncn3)c2c1 [Example D18] | 12.4
28 | COCCN(C)c1cc(-c2n[nH]c3ccc(OC(C)C)cc23)ncn1 [Example D19] | 66.5
29 | CC(C)Oc1ccc2[nH]nc(-c3cc(N4CCO[C@@H](C)C4)ncn3)c2c1 [Example D20] | 21.4
30 | COCCN1CCN(c2cc(-c3n[nH]c4ccc(OC(C)C)cc34)ncn2)CC1=O [Example D21] | 5.59
31 | CC(C)Oc1ccc2[nH]nc(-c3cc(N4CCN(C(=O)C5CC5)CC4)ncn3)c2c1 [Example D22] | 4.15
32 | CC(C)Oc1ccc2[nH]nc(-c3cc(N4CCN(S(=O)(=O)C5CC5)CC4)ncn3)c2c1 [Example D23] | 5.51
33 | CC(C)Oc1cc2c(-c3cc(N4CCOCC4)ncn3)n[nH]c2cc1F [Example D26] | 2.39
34 | CC(C)Oc1ccc2[nH]nc(-c3cc(N4C=CSCC4)ncn3)c2c1 [Example D27] | 6.08
35 | CCN1CCN(c2cc(-c3n[nH]c4ccc(OC(C)C)cc34)ncn2)CC1=O [Example D28] | 5.6
36 | CC(C)Oc1ccc2[nH]nc(-c3cc(N4CCN(C(C)C)C(=O)C4)ncn3)c2c1 [Example D29] | 5.28
37 | CO[C@@H]1CCN(c2cc(-c3n[nH]c4ccc(OC(C)C)cc34)ncn2)C1 [Example D30] | 7.47
38 | CO[C@H]1CCN(c2cc(-c3n[nH]c4ccc(OC(C)C)cc34)ncn2)C1 [Example D31] | 8.79
39 | CC(C)Oc1ccc2[nH]nc(-c3cc(N4CCN(CCF)C(=O)C4)ncn3)c2c1 [Example D33] | 3.3
40 | CCCN1CCN(c2cc(-c3n[nH]c4ccc(OC(C)C)cc34)ncn2)CC1=O [Example D34] | 4.39
41 | CC(C)Oc1cc2c(-c3cc(N4C[C@H](F)[C@@H](F)C4)ncn3)n[nH]c2cc1F [Example D35] | 4.78
42 | CCN1CCN(c2cc(-c3n[nH]c4cc(F)c(OC(C)C)cc34)ncn2)CC1=O [Example D36] | 4.16
43 | CC(C)Oc1cc2c(-c3cc(N4CCNC(=O)C4)ncn3)n[nH]c2cc1F [Example D37] | 2.89
44 | CC(C)Oc1cc2c(-c3cc(N4CCO[C@@H](C)C4)ncn3)n[nH]c2cc1F [Example D38] | 5.01
45 | CC(C)Oc1cc2c(-c3cc(N4CCO[C@H](C)C4)ncn3)n[nH]c2cc1F [Example D39] | 2.87
46 | CC(C)Oc1cc2c(-c3cc(N4CCOCC4C)ncn3)n[nH]c2cc1F (stereo not drawn) [Example D40] | 5.54
47 | CC(C)Oc1ccc2[nH]nc(-c3cc(N4C[C@H](O)[C@@H](O)[C@@H]4C)ncn3)c2c1 [Example D42] | 18.1
48 | CC(C)Oc1ccc2[nH]nc(-c3cc(N4CC[C@@H](N)C4)ncn3)c2c1 [Example D43] | 8.78

Row | SMILES | IC50 [nM]
49 | CC(C)Oc1ccc2[nH]nc(-c3cc(N4CC[C@H](N)C4)ncn3)c2c1 [Example D44] | 6.68
50 | CC(C)Oc1cc2c(-c3cc(N4CCN(C5CC5)CC4)ncn3)n[nH]c2cc1F [Example D45] | 3.99
51 | CCN1CCN(c2cc(-c3n[nH]c4cc(F)c(OC(C)C)cc34)ncn2)CC1 [Example D46] | 2.97
52 | CC(C)Oc1cc2c(-c3cc(N4CC5CCC(C4)O5)ncn3)n[nH]c2cc1F [Example D47] | 14.6
53 | CC(C)Oc1ccc2[nH]nc(-c3cc(N4CCC5(CCCO5)CC4)ncn3)c2c1 [Example D49] | 4.13
54 | CC(C)Oc1cc2c(-c3cc(N4CCN(C)[C@@H](C)C4)ncn3)n[nH]c2cc1F [Example D50] | 1.2
55 | CC(C)Oc1cc2c(-c3cc(N4CCN(C)[C@H](C)C4)ncn3)n[nH]c2cc1F [Example D51] | 1.3
56 | CC(C)Oc1ccc2[nH]nc(-c3cc(N4C[C@H](N)C[C@@H]4C)ncn3)c2c1 [Example D52] | 11.1
57 | CCC(=O)N1CCN(c2cc(-c3n[nH]c4ccc(OC(C)C)cc34)ncn2)CC1 [Example D53] | 4.26
58 | CC(C)Oc1ccc2[nH]nc(-c3cc(N4C[C@@H]5C[C@H]4CO5)ncn3)c2c1 [Example D54] | 5.94
59 | CC(C)Oc1ccc2[nH]nc(-c3cc(N4C[C@H](O)[C@@H](N)[C@@H]4C)ncn3)c2c1 [Example D55] | 14.4
60 | CC(C)Oc1cc2c(-c3cc(N4CCN(c5cnn(C)c5)CC4)ncn3)n[nH]c2cc1F [Example D56] | 2.19
61 | CC(C)Oc1cc2c(-c3cc(N4C[C@H](O)[C@@H](O)[C@@H]4C)ncn3)n[nH]c2cc1F [Example D57] | 15.5
62 | CC(C)Oc1cc2c(-c3cc(N4CC[C@@H](N)C4)ncn3)n[nH]c2cc1F [Example D58] | 7.3
63 | CC(C)Oc1cc2c(-c3cc(N4CC[C@H](N)C4)ncn3)n[nH]c2cc1F [Example D59] | 10.4
64 | CC(C)Oc1cc2c(-c3cc(N4C[C@H](N)C[C@@H]4C)ncn3)n[nH]c2cc1F [Example D60] | 7.6
65 | CC(C)Oc1cc2c(-c3cc(N4C[C@H](O)[C@@H](N)[C@@H]4C)ncn3)n[nH]c2cc1F [Example D61] | 11.7
66 | CC(C)Oc1cc2c(-c3cc(N4CCN(CCO)CC4)ncn3)n[nH]c2cc1F [Example D62] | 1.65
67 | CC(C)Oc1cc2c(-c3cc(N4CCN(S(=O)(=O)C5CC5)CC4)ncn3)n[nH]c2cc1F [Example D63] | 4.17
68 | CCC(=O)N1CCN(c2cc(-c3n[nH]c4cc(F)c(OC(C)C)cc34)ncn2)CC1 [Example D64] | 4.32
69 | CC(C)Oc1cc2c(-c3cc(N4CCN(C(=O)C5CC5)CC4)ncn3)n[nH]c2cc1F [Example D65] | 2.98
70 | CCCN1CCN(c2cc(-c3n[nH]c4cc(F)c(OC(C)C)cc34)ncn2)CC1=O [Example D66] | 2.77
71 | COCCOC1CCN(c2cc(-c3n[nH]c4cc(F)c(OC(C)C)cc34)ncn2)CC1 [Example D67] | 2.1
72 | CCS(=O)(=O)N1CCN(c2cc(-c3n[nH]c4cc(F)c(OC(C)C)cc34)ncn2)CC1 [Example D68] | 2.24
